How the values were obtained:
Assay type in all cases: in vivo
[1] = tested on: Orchid thrips (Dichromothrips corbetti); test: Orchid thrips floral-immersion test; settings: adult thrips on dipped orchid petals, 72 hours after treatment, read-out: mortality in comparison with untreated controls
Experimental: B.6 Orchid thrips (Dichromothrips corbetti)
Dichromothrips corbetti adults used for bioassay are obtained from a colony maintained continuously under laboratory conditions. For testing purposes, the test compound is diluted in a 1:1 mixture of acetone:water (vol:vol), plus Kinetic at a rate of 0.01% v/v.
Thrips potency of each compound is evaluated by using a floral-immersion technique. Each orchid petal is dipped into treatment solution and allowed to dry in Petri dishes. Treated petals are placed into individual re-sealable plastic along with about 20 adult thrips. All test arenas are held under dark condition and a temperature of about 28°C for duration of the assay. The percent mortality is recorded 72 hours after treatment.

[2] = tested on: boll weevil (Anthonomus grandis); test: Boll weevil test, insect diet with eggs in 96-well microtiter plates; settings: 120 h, read-out: mortality in comparison with untreated controls
Experimental: B.3 Boll weevil (Anthonomus grandis)
For evaluating control of boll weevil (Anthonomus grandis), the test unit consisted of 96-well-microtiter plates containing an insect diet and 5-10 A. grandis eggs.
The compounds were formulated using a solution containing 75% v/v water and 25% v/v DMSO. Different concentrations of formulated compounds were sprayed onto the insect diet at 5µl, using a custom-built micro atomizer, at two replications.
After application, microtiter plates were incubated at about 25 ± 1°C and about 75 ± 5 % relative humidity for 5 days. Egg and larval mortality was then visually assessed.

[3] = tested on: green peach aphid (Myzus persicae); test: Green peach aphid systemic test, artificial diet under membrane in 96-well microtiter plates; settings: 72 h, adult aphids on treated diet, 3 days, about 23 ± 1°C, read-out: mortality in comparison with untreated controls
Text: B.1 Green Peach Aphid (Myzus persicae)
For evaluating control of green peach aphid (Myzus persicae) through systemic means, the test unit consisted of 96-well-microtiter plates containing liquid artificial diet under an artificial mem brane.
The compounds were formulated using a solution containing 75% v/v water and 25% v/v DMSO. Different concentrations of formulated compounds were pipetted into the aphid diet, using a custom built pipetter, at two replications.
After application, 5 - 8 adult aphids were placed on the artificial membrane inside the microtiter plate wells. The aphids were then allowed to suck on the treated aphid diet and incubated at about 23 ± 1°C and about 50 ± 5 % relative humidity for 3 days. Aphid mortality and fecundity was then visually assessed.

[4] = tested on: tobacco budworm (Heliothis virescens); test: Tobacco budworm test, insect diet with eggs in 96-well microtiter plates; settings: 120 h, egg and larval mortality, 5 days, about 28 ± 1°C, read-out: mortality in comparison with untreated controls
Experimental: B.2 Tobacco budworm (Heliothis virescens)
For evaluating control of tobacco budworm (Heliothis virescens), the test unit consisted of 96-well-microtiter plates containing an insect diet and 15-25 H. virescens eggs.
The compounds were formulated using a solution containing 75% v/v water and 25% v/v DMSO. Different concentrations of formulated compounds were sprayed onto the insect diet at 10µl, using a custom-built micro atomizer, at two replications.
After application, microtiter plates were incubated at about 28 ± 1°C and about 80 ± 5 % relative humidity for 5 days. Egg and larval mortality was then visually assessed.

[5] = tested on: yellow fever mosquito (Aedes aegypti); test: whole plant or invertebrate; settings: 48 h, larval mortality, 2 days, 28 ± 1°C, read-out: mortality in comparison with untreated controls
Experimental: B.5 Yellow fever mosquito (Aedes aegypti)
For evaluating control of yellow fever mosquito (Aedes aegypti) the test unit consisted of 96-well-microtiter plates containing 200µl of tap water per well and 5-15 freshly hatched A. aegypti larvae.
The active compounds were formulated using a solution containing 75% (v/v) water and 25% (v/v) DMSO. Different concentrations of formulated compounds or mixtures were sprayed onto the insect diet at 2.5µl, using a custom-built micro atomizer, at two replications.
After application, microtiter plates were incubated at 28 ± 1°C, 80 ± 5 % RH for 2 days. Larval mortality was then visually assessed.

[6] = tested on: Southern armyworm (Spodoptera eridania), 2nd instar larvae; test: Southern armyworm foliar spray test on lima bean plants; settings: 96 h, 4 days after treatment, read-out: mortality in comparison with untreated controls
Experimental: B.4. Southern armyworm (Spodoptera eridania), 2nd instar larvae
The active compounds were formulated by a Tecan liquid handler in 100% cyclohexanone as a 10,000-ppm solution supplied in tubes. The 10,000-ppm solution was serially diluted in 100% cyclohexanone to make interim solutions. These served as stock solutions for which final dilutions were made by the Tecan in 50% acetone:50% water (v/v) into 10 or 20ml glass vials. A non-ionic surfactant (Kinetic®) was included in the solution at a volume of 0.01% (v/v). The vials were then inserted into an automated electrostatic sprayer equipped with an atomizing nozzle for application to plants/insects. Lima bean plants (variety Sieva) were grown 2 plants to a pot and selected for treatment at the 1st true leaf stage. Test solutions were sprayed onto the foliage by an automated electrostatic plant sprayer equipped with an atomizing spray nozzle. The plants were dried in the sprayer fume hood and then removed from the sprayer. Each pot was placed into perforated plastic bags with a zip closure. Ten to 11 armyworm larvae were placed into the bag and the bags zipped closed. […] Mortality and reduced feeding were assessed 4 days after treatment, compared to untreated control plants.

CC(NC(=O)c1cc(C(F)(F)F)cc(C(F)(F)F)c1)c1nccnc1-c1ncn(C2(C(N)=O)CC2)n1 (stereo not drawn) [I-2, N-[1-[3-[1-(1-carbamoylcyclopropyl)-1,2,4-triazol-3-yl]pyrazin-2-yl]ethyl]-3,5-bis(trifluoromethyl)benzamide]
≥ 75%: mortality at 300 ppm [1] | mortality at 2500 ppm [2] | mortality at 2500 ppm [3] | mortality at 2500 ppm [4] | mortality at 2500 ppm [5] | mortality at 300 ppm [6]

CC(NC(=O)c1cc(C(F)(F)F)cc(C(F)(F)F)c1)c1nccnc1-c1ncn(C2(C#N)CC2)n1 (stereo not drawn) [I-3, N-[1-[3-[1-(1-cyanocyclopropyl)-1,2,4-triazol-3-yl]pyrazin-2-yl]ethyl]-3,5-bis(trifluoromethyl)benzamide]
≥ 75%: mortality at 300 ppm [1] | mortality at 2500 ppm [2] | mortality at 2500 ppm [3] | mortality at 2500 ppm [4] | mortality at 2500 ppm [5] | mortality at 300 ppm [6]

Source: patent publication EP4488270A1, “TRIAZOLE COMPOUNDS FOR THE CONTROL OF INVERTEBRATE PESTS” (priority 2023, dated 2025)
